{
  "source": "paper PMC9007901",
  "about": "(European journal of medicinal chemistry, 2022)",
  "key": {"hHDAC8": {"biological_target": "T1, hHDAC8 (Homo sapiens, UniProt Q9BY41)", "T1 sequence (Q9BY41 1-377)": "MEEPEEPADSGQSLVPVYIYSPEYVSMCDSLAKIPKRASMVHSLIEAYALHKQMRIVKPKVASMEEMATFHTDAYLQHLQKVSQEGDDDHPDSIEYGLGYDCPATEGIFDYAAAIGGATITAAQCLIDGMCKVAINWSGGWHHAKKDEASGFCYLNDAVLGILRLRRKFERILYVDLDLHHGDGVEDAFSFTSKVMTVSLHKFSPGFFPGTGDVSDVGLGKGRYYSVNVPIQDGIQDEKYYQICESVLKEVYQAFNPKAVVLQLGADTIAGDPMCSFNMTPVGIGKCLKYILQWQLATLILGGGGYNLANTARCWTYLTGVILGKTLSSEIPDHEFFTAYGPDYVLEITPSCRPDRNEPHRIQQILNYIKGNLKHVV", "test": "HDAC8 activity assay", "type": "biochemical"}, "hHDAC1": {"biological_target": "hHDAC1 (Homo sapiens, UniProt Q13547)", "sequence (Q13547 whole entry)": "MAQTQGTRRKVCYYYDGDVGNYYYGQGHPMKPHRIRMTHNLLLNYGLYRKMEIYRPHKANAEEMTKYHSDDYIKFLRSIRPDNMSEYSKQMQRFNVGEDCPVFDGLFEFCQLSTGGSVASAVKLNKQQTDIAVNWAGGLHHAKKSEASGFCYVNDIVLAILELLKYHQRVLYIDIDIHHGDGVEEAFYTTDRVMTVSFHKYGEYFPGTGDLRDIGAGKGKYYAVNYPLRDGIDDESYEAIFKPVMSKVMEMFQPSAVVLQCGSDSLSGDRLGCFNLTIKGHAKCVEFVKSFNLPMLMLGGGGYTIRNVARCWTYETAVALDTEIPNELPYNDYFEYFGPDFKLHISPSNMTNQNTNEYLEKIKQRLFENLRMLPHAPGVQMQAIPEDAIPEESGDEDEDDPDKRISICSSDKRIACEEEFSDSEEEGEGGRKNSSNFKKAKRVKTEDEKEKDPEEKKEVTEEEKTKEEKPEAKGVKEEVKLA", "test": "recombinant HDAC1 homogenous fluorescence assay"}, "drHDAC10": {"biological_target": "T2, drHDAC10 (Danio rerio, UniProt F1QCV2)", "T2 sequence (F1QCV2 1-675)": "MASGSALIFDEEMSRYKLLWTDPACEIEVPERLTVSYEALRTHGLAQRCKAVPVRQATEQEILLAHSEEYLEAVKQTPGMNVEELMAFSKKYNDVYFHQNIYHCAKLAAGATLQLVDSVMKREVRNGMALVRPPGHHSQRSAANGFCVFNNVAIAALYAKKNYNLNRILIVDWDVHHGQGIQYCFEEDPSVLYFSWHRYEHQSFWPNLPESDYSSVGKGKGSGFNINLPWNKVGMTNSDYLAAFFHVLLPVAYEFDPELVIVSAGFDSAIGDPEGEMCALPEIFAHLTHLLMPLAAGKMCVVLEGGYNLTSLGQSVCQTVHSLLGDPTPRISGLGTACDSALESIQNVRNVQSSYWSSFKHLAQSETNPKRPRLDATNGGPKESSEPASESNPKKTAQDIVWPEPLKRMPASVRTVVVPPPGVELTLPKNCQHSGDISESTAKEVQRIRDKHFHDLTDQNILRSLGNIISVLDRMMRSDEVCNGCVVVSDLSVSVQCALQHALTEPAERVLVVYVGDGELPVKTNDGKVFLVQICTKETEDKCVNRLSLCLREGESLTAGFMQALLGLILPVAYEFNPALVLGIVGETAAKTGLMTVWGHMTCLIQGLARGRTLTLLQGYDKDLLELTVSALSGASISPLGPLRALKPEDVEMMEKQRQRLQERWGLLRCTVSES", "test": "drHDAC10 enzymatic in vitro assay", "type": "biochemical"}, "hHDAC6": {"biological_target": "T3, hHDAC6 (Homo sapiens, UniProt Q9UBN7)", "T3 sequence (Q9UBN7 1-1215)": "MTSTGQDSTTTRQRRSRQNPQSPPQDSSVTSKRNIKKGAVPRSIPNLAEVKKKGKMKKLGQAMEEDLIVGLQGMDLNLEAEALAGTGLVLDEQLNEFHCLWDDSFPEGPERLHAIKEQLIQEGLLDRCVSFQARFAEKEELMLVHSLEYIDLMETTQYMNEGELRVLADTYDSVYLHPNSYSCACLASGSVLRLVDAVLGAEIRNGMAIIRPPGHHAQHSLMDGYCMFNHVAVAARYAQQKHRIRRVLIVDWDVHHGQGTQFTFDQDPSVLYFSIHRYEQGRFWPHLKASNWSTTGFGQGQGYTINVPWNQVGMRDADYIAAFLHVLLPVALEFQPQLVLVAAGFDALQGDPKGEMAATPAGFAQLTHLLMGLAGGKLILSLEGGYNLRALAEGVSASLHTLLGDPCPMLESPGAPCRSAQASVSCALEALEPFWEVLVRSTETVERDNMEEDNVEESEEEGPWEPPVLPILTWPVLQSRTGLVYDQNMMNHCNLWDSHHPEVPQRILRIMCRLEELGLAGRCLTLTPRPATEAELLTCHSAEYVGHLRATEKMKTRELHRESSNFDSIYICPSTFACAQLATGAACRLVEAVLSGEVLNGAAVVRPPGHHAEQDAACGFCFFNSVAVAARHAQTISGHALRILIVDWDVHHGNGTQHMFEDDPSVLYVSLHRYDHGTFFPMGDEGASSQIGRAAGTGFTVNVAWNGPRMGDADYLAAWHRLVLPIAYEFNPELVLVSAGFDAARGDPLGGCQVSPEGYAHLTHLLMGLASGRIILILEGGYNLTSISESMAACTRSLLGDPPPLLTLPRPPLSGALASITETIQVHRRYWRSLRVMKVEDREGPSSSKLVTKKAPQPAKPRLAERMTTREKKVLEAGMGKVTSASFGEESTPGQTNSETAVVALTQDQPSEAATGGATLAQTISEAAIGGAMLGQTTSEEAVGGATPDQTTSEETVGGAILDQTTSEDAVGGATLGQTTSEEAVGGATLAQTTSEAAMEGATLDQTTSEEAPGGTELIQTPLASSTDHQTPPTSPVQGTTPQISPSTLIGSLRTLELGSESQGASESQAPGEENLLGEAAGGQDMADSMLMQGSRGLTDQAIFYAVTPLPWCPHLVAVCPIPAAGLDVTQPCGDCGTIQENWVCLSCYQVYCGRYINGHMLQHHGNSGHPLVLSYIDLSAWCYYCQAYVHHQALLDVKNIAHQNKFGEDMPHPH", "test": "recombinant HDAC6 homogenous fluorescence assay"}, "MV4–11 cells [1]": {"system": "MV4–11 cells", "test": "Annexin-V-FITC / PI flow cytometry", "type": "cell-based", "conditions": "2–15 μM, 24 h"}, "[2]": {"system": "acetylated tubulin-α in MV4–11 cells", "test": "Immunoblot for acetylated tubulin-α", "type": "cell-based", "conditions": "15 μM, 24 h, did not reach significance"}, "MV4–11 cells [3]": {"system": "MV4–11 cells", "test": "Cyto-ID detection of modulation of autophagy", "type": "cell-based", "conditions": "2–15 μM, 24 h, with 10 μM chloroquine"}, "[4]": {"system": "HDAC10 and GAPDH levels in MV4–11 cells", "test": "Immunoblot for HDAC10 and GAPDH levels", "type": "cell-based", "conditions": "24 h"}, "[5]": {"system": "SK-N-BE(2)-C neuroblastoma cells", "test": "LysoTracker assay", "type": "cell-based, Human", "conditions": "SK-N-BE(2)-C cells, 24 h"}, "[6]": {"system": "acetylated histone H3 in MV4–11 cells", "test": "Immunoblot for acetylated histone H3", "type": "cell-based", "conditions": "24 h"}},
  "data": [
    {"smiles": "O=C(NO)c1ccc(CNCc2ccccc2)cc1", "note": "[4a, 4-[(benzylamino)methyl]-benzhydroxamic acid]", "values": [
      {"measurement": "selectivity index (SI), hHDAC8 over drHDAC10", "setting": "hHDAC8", "value": 94}
    ]},
    {"smiles": "O=C(NO)c1ccc(CNCc2cccs2)cc1", "note": "[4b, 4-{[(thiophen-2-ylmethyl)amino]methyl}benzhydroxamic acid]", "values": [
      {"measurement": "selectivity index (SI), hHDAC1 over drHDAC10", "setting": "hHDAC1", "value": 85},
      {"measurement": "selectivity index (SI), hHDAC8 over drHDAC10", "setting": "hHDAC8", "value": 30}
    ]},
    {"smiles": "O=C(NO)c1ccc(CNCc2ccsc2)cc1", "note": "[4c, 4-{[(thiophen-3-ylmethyl)amino]methyl}benzhydroxamic acid]", "values": [
      {"measurement": "selectivity index (SI), hHDAC1 over drHDAC10", "setting": "hHDAC1", "value": 417}
    ]},
    {"smiles": "O=C(NO)c1ccc(CN2CCCCC2)cc1", "note": "[6a, 4-(piperidin-1-ylmethyl)benzhydroxamic acid]", "values": [
      {"measurement": "drHDAC10 inhibition (in words)", "setting": "drHDAC10", "value": "only weak HDAC10 inhibition"}
    ]},
    {"smiles": "CN1CCN(Cc2ccc(C(=O)NO)cc2)CC1", "note": "[6b, 4-[(N-methylpiperazin-1-yl)methyl]benzhydroxamic acid]", "values": [
      {"measurement": "selectivity index (SI), hHDAC6 over drHDAC10", "setting": "hHDAC6", "value": 9},
      {"measurement": "IC50", "setting": "hHDAC8", "value": "2400 ± 210", "unit": "nM"}
    ]},
    {"smiles": "O=C(/C=C/C1CCN(CCc2ccccc2)CC1)NO", "note": "[10a, (E)-3-(1-phenethylpiperidin-4-yl)acrylhydroxamic acid]", "values": [
      {"measurement": "selectivity index (SI), hHDAC1 over drHDAC10", "setting": "hHDAC1", "value": 1454},
      {"measurement": "selectivity index (SI), hHDAC6 over drHDAC10", "setting": "hHDAC6", "value": 395},
      {"measurement": "IC50", "setting": "hHDAC8", "value": "250 ± 50", "unit": "nM"},
      {"measurement": "selectivity index (SI), hHDAC8 over drHDAC10", "setting": "hHDAC8", "value": 23}
    ]},
    {"smiles": "O=C(/C=C/C1CCN(CCc2c[nH]c3ccccc23)CC1)NO", "note": "[10b, (E)-3-{1-[2-(1H-indol-3-yl)ethyl]piperidin-4-yl}acrylhydroxamic acid]", "values": [
      {"measurement": "drHDAC10 inhibition (in words)", "setting": "drHDAC10", "value": "Potent drHDAC10 inhibition"},
      {"measurement": "IC50", "setting": "hHDAC8", "value": "420 ± 55", "unit": "nM"}
    ]},
    {"smiles": "O=C(/C=C/C1CCN(Cc2cccc3ccccc23)CC1)NO", "note": "[10c, (E)-3-[1-(naphthalen-1-ylmethyl)piperidin-4-yl]acrylhydroxamic acid]", "values": [
      {"measurement": "apoptosis (annexin-V-FITC / PI)", "setting": "MV4–11 cells [1]", "value": "did not trigger apoptosis"},
      {"measurement": "tubulin acetylation compared to non-treated cells", "setting": "[2]", "value": "36–80 fold"},
      {"measurement": "accumulation of cyto-ID positive vesicles", "setting": "MV4–11 cells [3]", "value": "significantly induced the accumulation of cyto-ID positive vesicles"},
      {"measurement": "drHDAC10 inhibition (in words)", "setting": "drHDAC10", "value": "Potent drHDAC10 inhibition"},
      {"measurement": "GAPDH levels", "setting": "[4]", "value": "no change of GAPDH levels"},
      {"measurement": "HDAC10 protein levels", "setting": "[4]", "value": "slightly increased levels of HDAC10"},
      {"measurement": "IC50", "setting": "hHDAC8", "value": "470 ± 70", "unit": "nM"},
      {"measurement": "expansion and acidification of the lysosomal compartment (LysoTracker DND-99)", "setting": "[5]", "value": "induced the expansion and acidification of the lysosomal compartment"},
      {"measurement": "accumulation of acetylated histone H3", "setting": "[6]; 2–15 μM", "value": "did not induce a significant accumulation of acetylated histone H3"}
    ]},
    {"smiles": "O=C(/C=C/C1CCN(Cc2cccc(Cl)c2)CC1)NO", "note": "[10d, (E)-3-[1-(3-chlorobenzyl)piperidin-4-yl]acrylhydroxamic acid]", "values": [
      {"measurement": "IC50", "setting": "hHDAC8", "value": "2500 ± 260", "unit": "nM"}
    ]},
    {"smiles": "O=C(/C=C/C1CCN(Cc2csc3ccccc23)CC1)NO", "note": "[13a, (E)-3-{1-[benzothiophen-3-ylmethyl]piperidin-4-yl} acrylhydroxamic acid]", "values": [
      {"measurement": "drHDAC10 inhibition (in words)", "setting": "drHDAC10", "value": "Potent drHDAC10 inhibition"}
    ]},
    {"smiles": "Cn1cc(CN2CCC(/C=C/C(=O)NO)CC2)c2ccccc21", "note": "[13b, (E)-3-{1-[(1-methylindol-3-yl)methyl]piperidin-4-yl} acrylhydroxamic acid]", "values": [
      {"measurement": "apoptosis (annexin-V-FITC / PI)", "setting": "MV4–11 cells [1]", "value": "did not trigger apoptosis"},
      {"measurement": "tubulin acetylation compared to non-treated cells", "setting": "[2]", "value": "36–80 fold"},
      {"measurement": "accumulation of cyto-ID positive vesicles", "setting": "MV4–11 cells [3]", "value": "significantly induced the accumulation of cyto-ID positive vesicles"},
      {"measurement": "drHDAC10 inhibition (in words)", "setting": "drHDAC10", "value": "Potent drHDAC10 inhibition"},
      {"measurement": "GAPDH levels", "setting": "[4]", "value": "no change of GAPDH levels"},
      {"measurement": "HDAC10 protein levels", "setting": "[4]", "value": "slightly increased levels of HDAC10"},
      {"measurement": "expansion and acidification of the lysosomal compartment (LysoTracker DND-99)", "setting": "[5]", "value": "induced the expansion and acidification of the lysosomal compartment"},
      {"measurement": "accumulation of acetylated histone H3", "setting": "[6]; 2–15 μM", "value": "did not induce a significant accumulation of acetylated histone H3"}
    ]},
    {"smiles": "Nc1ccccc1NC(=O)c1ccc(CNC(=O)OCc2cccnc2)cc1", "note": "[Entinostat (MS-275), entinostat, reference compound]", "values": [
      {"measurement": "accumulation of acetylated histone H3", "setting": "[6]; 5 μM, positive control", "value": "induced a highly significant accumulation of acetylated histone H3"}
    ]}
  ]
}
